How the values were obtained:
Assay type in all cases: cell-based
[1] = target: T1, pERK1/2 (Thr202/Tyr204), PANC-1 (KRAS G121D) (Homo sapiens, UniProt P01116, G12D); assay: Assay of intracellular pERK1/2 (Thr202/Tyr204) phosphorylation in PANC-1 cells (KRAS G12D); details: pERK1/2, 2 days, read-out: PANC-1 (KRAS G12D) IC50
T1 construct: pERK1/2 HTRF read-out
Protocol: (§1) Example 2: Assay of intracellular pERK1/2 (Thr202/Tyr204)phosphorylation
(§2) 1. Reagents and materials: • pERK1/2 (Thr202/Tyr2O4) HIRE kit, Cisbio, Cat #64ERKPEH; • OptiPlate™-384-well plate, PerkinElmer, Cat #6007299; • 96-well plate, Coming, Cat #353072; • Instrument: EnVision2104, PerkinElmer; • Cell lines: NCI-1H358 (KRAS G12C), ATCC, CRL-5807; PANC-1 (KRAS G121D), ATCC, CRL-1469; NCI-1H441 (KRAS G12V), ATCC, HTB-174.
(§3) 2. Preparation of Reaction Solutions
(§4) • A test compound was dissolved in DMSO, diluted to 200.0 μM and further diluted 3-fold to prepare a series of test compounds at concentrations of 66.7, 22.2, 7.4, 2.5, 0.82, 0.27, 0.09 μM etc. Then 10 μL of the compound at different dilution concentrations was added to 190 μL of a DMEM medium to prepare a 10× test compound; • 1× cell lysis buffer: 4× cell lysis stock solution (provided by the kit) was diluted 4-fold with deionized water, and then 10% 100× blocking stock solution (provided by the kit) was added thereto. • pERK1/2 detection solution (prepared just before use): the pERK1/2 d2 antibody (provided by the kit) and pERK1/2 Cryptate antibody (provided by the kit) were diluted with the detection solution (provided by the kit) at a ratio of 1:1:38.
(§5) • Cells were inoculated into a 96-well plate (100 μL/well) at a density of 10000-12000/well. No cell was inoculated into a negative control well, and only the cell medium was added at 100 μL/well. The plate was placed in a cell incubator at 5% CO2 and 37° C. overnight. • 10 μL of the 10× test compound was added to the 100 μL cell culture 96-well plate; both the positive control well (that is, the control hole without chemical compound treatment) and the negative control well were charged with 10 μL of a 5% DMSO culture solution; and the plate was cultured in a cell incubator at 5% CO2 and 37° C. for 2 days. • The medium in the 96-well plate was removed; 50 μL of the 1× cell lysis buffer was added to each of the wells; the plate was placed in a microplate shaker; and lysis under shaking was carried out at 900 rpm at room temperature for 1 hour. • 16 μL of the lysis buffer in the 96-well plate was taken and transferred to a 384-well plate, followed by centrifugation at 1000 rpm for 30 s; then 4 μL of pERK1/2 detection solution was added to each well, followed by centrifugation at 1000 rpm for 30 s; and the 384-well plate was sealed with a sealing membrane and incubated at 25° C. on a low-speed shaker at 100 rpm in the dark for 2 hours. • The fluorescence value (RFU) of each well was detected on EnVision2104, with an emission wavelength 1 being 665 nm and an emission wavelength 2 being 615 nm.
(§6) Fluorescence ratio=fluorescence value665 nm/fluorescence value615 nm
(§7) Inhibition rate (%)=100−((fluorescence ratio of compound well−fluorescence ratio of negative control well)/(fluorescence ratio of positive control well−fluorescence ratio of negative control well))×100
(§8) wherein: • the fluorescence ratio of compound well refers to the fluorescence ratio of the well containing the test compounds; • the fluorescence ratio of negative control well refers to the fluorescence ratio of the cell-free control well; • the fluorescence ratio of positive control well refers to the fluorescence ratio of the cell well treated with 0.5% DMSO.
(§9) IC50 value: obtained by calculation using XL-Fit 5.0 software.

[2] = target: T2, pERK1/2 (Thr202/Tyr204), NCI-1H441 (KRAS G12V) (Homo sapiens, UniProt P01116, G12V); assay: Assay of intracellular pERK1/2 (Thr202/Tyr204) phosphorylation in NCI-H441 cells (KRAS G12V); details: pERK1/2, 2 days, read-out: NCI-H441 (KRAS G12V) IC50
T2 construct: pERK1/2 HTRF read-out
Protocol: as §1, §2, §3, §4, §5, §6, §7, §8, §9

[3] = target: T3, pERK1/2 (Thr202/Tyr204), NCI-1H358 (KRAS G12C) (Homo sapiens, UniProt P01116, G12C); assay: Assay of intracellular pERK1/2 (Thr202/Tyr204) phosphorylation in NCI-H358 cells (KRAS G12C); details: pERK1/2, 2 days, read-out: NCI-H358 (KRAS G12C) IC50
T3 construct: pERK1/2 HTRF read-out
Protocol: as §1, §2, §3, §4, §5, §6, §7, §8, §9

T3 sequence (P01116 1-188 isoform P01116-2 G12C): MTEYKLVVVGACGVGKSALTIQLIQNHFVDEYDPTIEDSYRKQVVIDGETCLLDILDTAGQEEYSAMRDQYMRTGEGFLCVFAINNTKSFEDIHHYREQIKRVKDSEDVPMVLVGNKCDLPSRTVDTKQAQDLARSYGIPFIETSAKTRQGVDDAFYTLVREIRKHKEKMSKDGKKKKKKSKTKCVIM
T1 sequence (P01116 1-188 isoform P01116-2 G12D): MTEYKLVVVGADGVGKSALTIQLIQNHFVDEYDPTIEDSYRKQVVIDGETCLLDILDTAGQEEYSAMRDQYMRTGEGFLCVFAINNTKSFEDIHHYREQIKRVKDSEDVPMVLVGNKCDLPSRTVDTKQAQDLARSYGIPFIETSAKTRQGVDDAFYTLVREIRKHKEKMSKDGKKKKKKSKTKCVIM
T2 sequence (P01116 1-188 isoform P01116-2 G12V): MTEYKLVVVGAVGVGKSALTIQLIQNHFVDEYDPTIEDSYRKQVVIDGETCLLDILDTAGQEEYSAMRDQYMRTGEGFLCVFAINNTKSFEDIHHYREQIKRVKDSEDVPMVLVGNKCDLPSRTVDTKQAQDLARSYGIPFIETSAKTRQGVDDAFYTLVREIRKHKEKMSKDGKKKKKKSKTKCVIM

CC(c1cccnc1N)N1CCOc2nc(-c3cc(N)c(F)c(Cl)c3Cl)c(F)c3nc(OC[C@@]45CCCN4C[C@H](F)C5)nc1c23 (stereo partly drawn) [Compound 233]
IC50 [1]: 0.032 µM | IC50 [2]: 0.003 µM | IC50 [3]: 0.001 µM

Cc1c(F)c(N)cc(-c2nc3c4c(nc(OC[C@@]56CCCN5C[C@H](F)C6)nc4c2F)N(C2CC2)CCO3)c1C(F)(F)F [Compound 196]
IC50 [1]: > 0.1 µM | IC50 [2]: > 0.1 µM | IC50 [3]: > 0.1 µM

Cc1cc(N)cc(-c2nc3c4c(nc(OC[C@@H]5CCCN5CCO)nc4c2F)N(C(C)c2cccnc2N)CCO3)c1C(F)(F)F (stereo partly drawn) [Compound 108]
IC50 [1]: > 0.1 µM | IC50 [2]: 0.026 µM | IC50 [3]: 0.012 µM

[2H]C1([2H])CC[C@@]2(C([2H])([2H])Oc3nc4c5c(nc(-c6cc(O)cc(Cl)c6C6CC6)c(F)c5n3)OCCN4C(C)c3cccnc3N)C[C@@H](F)CN12 (single isomer, unassigned) [Compound 131, 3-(10-((R or S)-1-(2-aminopyridin-3-yl)ethyl)-4-fluoro-2-(((2R,7aS)-2-fluorotetrahydro-1H-pyrrolizin-7a(5H)-yl-5,5-d2)methoxy-d2)-9,10-dihydro-8H-7-oxa-1,3,6,10-tetraazacyclohepta[de]naphthalen-5-yl)-5-chloro-4-cyclopropylphenol]
IC50 [1]: 0.007 µM | IC50 [2]: 0.001 µM | IC50 [3]: 0.0005 µM

CC(c1cccnc1N)N1CCOc2nc(-c3cc(O)cc(Cl)c3C(F)(F)F)c(F)c3nc(OC[C@@]45CCCN4C[C@H](F)C5)nc1c23 (single isomer, unassigned) [Compound 57, 3-(10-((R or S)-1-(2-aminopyridin-3-yl)ethyl)-4-fluoro-2-(((2R,7aS)-2-fluorotetrahydro-1H-pyrrolizin-7a(5H)-yl)methoxy)-9,10-dihydro-8H-7-oxa-1,3,6,10-tetraazacyclohepta[de]naphthalen-5-yl)-5-chloro-4-(trifluoromethyl)phenol]
IC50 [1]: 0.746 µM | IC50 [2]: 0.032 µM | IC50 [3]: 0.015 µM

Cc1cc(N)cc(-c2nc3c4c(nc(OC[C@@H]5C[C@@H](F)CN5C)nc4c2F)N(C(C)c2cccnc2N)CCO3)c1C(F)(F)F (single isomer, unassigned) [Compound 81, 3-((R or S)-1-(5-(5-amino-3-methyl-2-(trifluoromethyl)phenyl)-4-fluoro-2-(((2S,4R)-4-fluoro-1-methylpyrrolidin-2-yl)methoxy)-8,9-dihydro-10H-7-oxa-1,3,6,10-tetraazacyclohepta[de]naphthalen-10-yl)ethyl)pyridin-2-amine]
IC50 [1]: > 0.1 µM | IC50 [2]: > 0.1 µM | IC50 [3]: > 0.1 µM

Cc1c(F)c(N)cc(-c2nc3c4c(nc(OC[C@@]56CCCN5CC(=C(F)F)C6)nc4c2F)N(C(C)c2cccnc2N)CCO3)c1C(F)(F)F (stereo partly drawn) [Compound 243]
IC50 [1]: 0.001 µM | IC50 [2]: 0.0005 µM | IC50 [3]: 0.0002 µM

Cc1cc2cn[nH]c2cc1-c1nc2c3c(nc(OC[C@@]45CCCN4C[C@H](F)C5)nc3c1F)N(C(C)c1cccnc1N)[C@@H](C)CO2 (stereo partly drawn) [Compound 314]
IC50 [1]: > 0.1 µM | IC50 [2]: > 0.1 µM | IC50 [3]: > 0.1 µM

CC[C@@H](c1cccnc1N)N1CCOc2nc(-c3cc(N)c(F)c(C)c3C(F)(F)F)c(F)c3nc(OC[C@@]45CCCN4C[C@H](F)C5)nc1c23 (single isomer, unassigned) [Compound 213, 3-((R or S)-1-(5-(5-amino-4-fluoro-3-methyl-2-(trifluoromethyl)phenyl)-4-fluoro-2-(((2R,7aS)-2-fluorotetrahydro-1H-pyrrolizin-7a(5H)-yl)methoxy)-8,9-dihydro-10H-7-oxa-1,3,6,10-tetraazacyclohepta[de]napthalen-10-yl)propyl)pyridin-2-amine]
IC50 [1]: > 0.1 µM | IC50 [2]: 0.018 µM | IC50 [3]: 0.013 µM

[2H]C1([2H])CN(C(C)c2cccnc2N)c2nc(OC[C@@]34CCCN3C[C@H](F)C4)nc3c(F)c(-c4cc(N)cc(C)c4C(F)(F)F)nc(c23)O1 (single isomer, unassigned) [Compound 154, 3-((R or S)-1-(5-(5-amino-3-methyl-2-(trifluoromethyl)phenyl)-4-fluoro-2-(((2R,7aS)-2-fluorotetrahydro-1H-pyrrolizin-7a(5H)-yl)methoxy)-8,9-dihydro-10H-7-oxa-1,3,6,10-tetraazacyclohepta[de]naphthalen-10-yl-8,8-d2)ethyl)pyridin-2-amine]
IC50 [1]: > 0.1 µM | IC50 [2]: 0.031 µM | IC50 [3]: 0.021 µM

[2H]C1([2H])CC[C@@]2(C([2H])([2H])Oc3nc4c5c(nc(-c6cc(N)c(F)c(C)c6C(F)(F)F)c(F)c5n3)OCCN4C(C)c3cccnc3N)C[C@]([2H])(F)CN12 (single isomer, unassigned; diastereomer 2) [Compound 179, (*)3-(1-(5-(5-amino-4-fluoro-3-methyl-2-(trifluoromethyl)phenyl)-4-fluoro-2-(((2R or 2S,7aS)-2-fluorotetrahydro-1H-pyrrolizin-7a(5H)-yl-2,5,5-d3)methoxy-d2)-8,9-dihydro-10H-7-oxa-1,3,6,10-tetraazacyclohepta[de]naphthalen-10-yl)ethyl)pyridin-2-amine (diastereomer 2)]
IC50 [1]: 0.02 µM | IC50 [2]: 0.003 µM | IC50 [3]: 0.001 µM

Cc1c(F)c(N)cc(-c2nc3c4c(nc(OC[C@@]56CCCN5C[C@H](F)C6)nc4c2F)N([C@H](C)c2cn(C)nc2N)CCO3)c1C(F)(F)F (single isomer, unassigned) [Compound 260, 4-((R or S)-1-(5-(5-amino-4-fluoro-3-methyl-2-(trifluoromethyl)phenyl)-4-fluoro-2-(((2R,7aS)-2-fluorotetrahydro-1H-pyrrolizin-7a(5H)-yl)methoxy)-8,9-dihydro-10H-7-oxa-1,3,6,10-tetraazacyclohepta[de]naphthalen-10-yl)ethyl)-1-methyl-1H-pyrazol-3-amine]
IC50 [1]: > 0.1 µM | IC50 [2]: 0.065 µM | IC50 [3]: 0.03 µM

[2H]C([2H])([2H])N1CCC[C@H]1COc1nc2c3c(nc(-c4cc(N)cc(Cl)c4C(F)(F)F)c(F)c3n1)OCCN2C(C)c1cccnc1N (stereo partly drawn) [Compound 111]
IC50 [1]: 0.021 µM | IC50 [2]: 0.001 µM | IC50 [3]: 0.001 µM

CC(c1cccnc1N)N1CCOc2nc(-c3cc(O)cc(F)c3C3CC3)c(F)c3nc(OC[C@@H]4CC(F)(F)CN4C)nc1c23 (single isomer, unassigned) [Compound 49, 3-(10-((R or S)-1-(2-aminopyridin-3-yl)ethyl)-2-(((S)-4,4-difluoro-1-methylpyrrolidin-2-yl)methoxy)-4-fluoro-9,10-dihydro-8H-7-oxa-1,3,6,10-tetraacyclohepta[de]naphthalen-5-yl)-4-cyclopropyl-5-fluorophenol]
IC50 [1]: 0.557 µM | IC50 [2]: 0.022 µM | IC50 [3]: 0.015 µM

Cc1c(C(F)(F)F)c(-c2nc3c4c(nc(OC[C@@]56CCCN5C[C@H](F)C6)nc4c2F)N(C(C)c2cccnc2N)[C@@H](C)CO3)c2c(C)n[nH]c2c1F (stereo partly drawn) [Compound 379]
IC50 [1]: 0.0001 µM | IC50 [2]: 0.0003 µM | IC50 [3]: 0.0002 µM

From patent US20260356851A1, “TRICYCLIC COMPOUNDS AND USES THEREOF” (HUTCHMED LIMITED, priority 2023, published 2026)
